# Assay results published in US20240391948A1, “NOVEL COMPOUND THAT INHIBITS TNF-ALPHA GENERATION AND INFLAMMASOME ACTIVITY AND PREPARATION METHOD THEREFOR” (SHAPERON INC., priority 2021, published 2024).
# Experiments:
# Type in all cases: cell-based
# [1] = system: J774A.1 (Mouse BALB/c monocyte macrophage cell line) cells; assay: LPS-induced TNF-α secretion inhibition in J774A.1 cells; settings: J774.A1, 1 μM compound, graded compared to taurodeoxycholic acid (positive control), read-out: TNF-α production inhibition grade
# Method in brief: (§1)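 Grades (A >100%, B 50–100%, C 20–50%, D <20%) express cytokine suppression by 1 μM compound relative to taurodeoxycholic acid. LPS-induced TNF-α and LPS+ATP-induced IL-1β secretion were measured in murine J774A.1 macrophage cells.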
# [2] = system: U937 cells (human monocytic cell line); assay: Pam2CSK4-induced TNF-α secretion inhibition in PMA-differentiated U937 cells; settings: U-937, U937 cells differentiated with PMA, read-out: TNF-α production inhibition grade (IC50)
# Method in brief: (§2)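 Inhibition is given as IC50 (μM) in A-D bands, using distinct thresholds for TNF-α and for IL-1β. Secretion followed Pam2CSK4 stimulation (TNF-α) or BzATP stimulation (IL-1β) of compound-pretreated, PMA-differentiated U937 macrophages.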
# [3] = system: U937 cells (human monocytic cell line); assay: BzATP-induced IL-1β secretion inhibition in PMA-differentiated U937 cells; settings: U-937, U937 cells differentiated with PMA, read-out: IL-1β production inhibition grade (IC50)
# Method in brief: as §2
# [4] = system: J774A.1 (Mouse BALB/c monocyte macrophage cell line) cells; assay: LPS+ATP-induced IL-1β secretion inhibition in J774A.1 cells; settings: J774.A1, 1 μM compound, graded compared to taurodeoxycholic acid (positive control), read-out: IL-1β production inhibition grade
# Method in brief: as §1
SMILES,inhibition at 1 µM [1] [%],IC50 [2] [nM],IC50 [3] [nM],inhibition at 1 µM [4] [%]
C[C@H](CCC(=O)N1CCC[C@H](S(=O)(=O)O)C1)[C@H]1CC[C@H]2[C@@H]3CC[C@@H]4CC(=O)CC[C@]4(C)[C@H]3CC[C@]12C [NC30009],50 to 100,500 to 1000,≥ 200,20 to 50
C[C@H](CCC(=O)NC1(CS(=O)(=O)O)CC1)[C@H]1CC[C@H]2[C@@H]3CC[C@@H]4C[C@H](O)CC[C@]4(C)[C@H]3CC[C@]12C [NC10088],20 to 50,< 500,≥ 200,< 20
C[C@H](CCC(=O)N1CCC[C@@H](S(=O)(=O)O)C1)[C@H]1CC[C@H]2[C@@H]3[C@H](O)C[C@@H]4C[C@H](O)CC[C@]4(C)[C@H]3C[C@H](O)[C@]12C [NC20010],< 20,1000 to 2000,< 50,50 to 100
C[C@H](CCC(=O)N(CCS(=O)(=O)O)Cc1ccccc1)[C@H]1CC[C@H]2[C@@H]3[C@H](O)C[C@@H]4C[C@H](O)CC[C@]4(C)[C@H]3C[C@H](O)[C@]12C [NC20005],< 20,500 to 1000,50 to 100,> 100
CC(C)[C@H](CS(=O)(=O)O)NC(=O)CC[C@@H](C)[C@H]1CC[C@H]2[C@@H]3CC[C@@H]4C[C@H](O)CC[C@]4(C)[C@H]3CC[C@]12C [NC10073],< 20,< 500,50 to 100,50 to 100
CC[C@H]1[C@@H](O)[C@@H]2[C@H](CC[C@]3(C)[C@@H]([C@H](C)CCC(=O)N(CCS(=O)(=O)O)c4ccccc4)CC[C@@H]23)[C@@]2(C)CC[C@@H](O)C[C@@H]12 [NC40037],< 20,500 to 1000,50 to 100,20 to 50
C[C@H](CCC(=O)N[C@H](Cc1ccccc1)CS(=O)(=O)O)[C@H]1CC[C@H]2[C@@H]3CC[C@@H]4C[C@H](O)CC[C@]4(C)[C@H]3CC[C@]12C [NC10066],< 20,1000 to 2000,< 50,> 100
C[C@H](CCC(=O)N1CCC[C@@H]1CS(=O)(=O)O)[C@H]1CC[C@H]2[C@@H]3[C@H](O)C[C@@H]4C[C@H](O)CC[C@]4(C)[C@H]3C[C@H](O)[C@]12C [NC20020],50 to 100,≥ 2000,< 50,20 to 50
C[C@H](CCC(=O)NC[C@H](C)S(=O)(=O)O)[C@H]1CC[C@H]2[C@@H]3CC[C@@H]4C[C@H](O)CC[C@]4(C)[C@H]3C[C@H](O)[C@]12C [NC10038],< 20,≥ 2000,50 to 100,50 to 100
C[C@H](CCC(=O)NCS(=O)(=O)O)[C@H]1CC[C@H]2[C@@H]3CC[C@@H]4C[C@H](O)CC[C@]4(C)[C@H]3C[C@H](O)[C@]12C [NC10001],< 20,≥ 2000,< 50,> 100
CCN(CC)CCNC(=O)CC[C@@H](C)[C@H]1CC[C@H]2[C@@H]3CC[C@@H]4C[C@H](O)CC[C@]4(C)[C@H]3C[C@H](O)[C@]12C [NC10017],> 100,500 to 1000,< 50,> 100
CC[C@H]1[C@@H](O)[C@@H]2[C@H](CC[C@]3(C)[C@@H]([C@H](C)CCC(=O)N4CC[C@H](S(=O)(=O)O)C4)CC[C@@H]23)[C@@]2(C)CC[C@@H](O)C[C@@H]12 [NC40033],> 100,< 500,< 50,> 100
CC[C@H]1[C@@H](O)[C@@H]2[C@H](CC[C@]3(C)[C@@H]([C@H](C)CCC(=O)N[C@@H](CC(C)C)CS(=O)(=O)O)CC[C@@H]23)[C@@]2(C)CC[C@@H](O)C[C@@H]12 [NC40030],< 20,1000 to 2000,≥ 200,< 20
C[C@H](CCC(=O)N(C)CCS(=O)(=O)O)[C@H]1CC[C@H]2[C@@H]3CC[C@@H]4CC(=O)CC[C@]4(C)[C@H]3CC[C@]12C [NC30004],20 to 50,1000 to 2000,≥ 200,20 to 50
CC(C)C[C@H](CS(=O)(=O)O)NC(=O)CC[C@@H](C)[C@H]1CC[C@H]2[C@@H]3[C@H](O)C[C@@H]4C[C@H](O)CC[C@]4(C)[C@H]3C[C@H](O)[C@]12C [NC20031],< 20,< 500,50 to 100,50 to 100
C[C@H](CS(=O)(=O)O)NC(=O)CC[C@@H](C)[C@H]1CC[C@H]2[C@@H]3CC[C@@H]4C[C@H](O)CC[C@]4(C)[C@H]3CC[C@]12C [NC10085],< 20,≥ 2000,≥ 200,< 20
CC[C@H]1[C@@H](O)[C@@H]2[C@H](C[C@H](O)[C@]3(C)[C@@H]([C@H](C)CCC(=O)N[C@H](CS(=O)(=O)O)c4ccccc4)CC[C@@H]23)[C@@]2(C)CC[C@@H](O)C[C@@H]12 [NC50018],< 20,≥ 2000,50 to 100,50 to 100
CC[C@H]1[C@@H](O)[C@@H]2[C@H](CC[C@]3(C)[C@@H]([C@H](C)CCC(=O)N(CCN(C)C)CCS(=O)(=O)O)CC[C@@H]23)[C@@]2(C)CC[C@@H](O)C[C@@H]12 [NC40035],< 20,< 500,50 to 100,> 100
CC[C@H]1[C@@H](O)[C@@H]2[C@H](C[C@H](O)[C@]3(C)[C@@H]([C@H](C)CCC(=O)N[C@H](CS(=O)(=O)O)C(C)C)CC[C@@H]23)[C@@]2(C)CC[C@@H](O)C[C@@H]12 [NC50016],< 20,500 to 1000,50 to 100,> 100
C[C@H](CCC(=O)N(CCO)CCS(=O)(=O)O)[C@H]1CC[C@H]2[C@@H]3[C@H](O)C[C@@H]4C[C@H](O)CC[C@]4(C)[C@H]3C[C@H](O)[C@]12C [NC20006],< 20,1000 to 2000,< 50,> 100
C[C@H](CCC(=O)NCCOS(=O)(=O)O)[C@H]1CC[C@H]2[C@@H]3CC[C@@H]4C[C@H](O)CC[C@]4(C)[C@H]3C[C@H](O)[C@]12C [NC10007],50 to 100,≥ 2000,< 50,50 to 100
C[C@H](CCC(=O)N[C@H](Cc1ccccc1)CS(=O)(=O)O)[C@H]1CC[C@H]2[C@@H]3CC[C@@H]4C[C@H](O)CC[C@]4(C)[C@H]3C[C@H](O)[C@]12C [NC10031],< 20,≥ 2000,50 to 100,< 20
C[C@H](CCC(=O)N[C@@H](CS(=O)(=O)O)c1ccccc1)[C@H]1CC[C@H]2[C@@H]3CC[C@@H]4CC(=O)CC[C@]4(C)[C@H]3CC[C@]12C [NC30019],< 20,1000 to 2000,≥ 200,< 20
CC[C@H]1[C@@H](O)[C@@H]2[C@H](CC[C@]3(C)[C@@H]([C@H](C)CCC(=O)N(CCS(=O)(=O)O)C(C)C)CC[C@@H]23)[C@@]2(C)CC[C@@H](O)C[C@@H]12 [NC40007],< 20,1000 to 2000,≥ 200,50 to 100
C[C@H](CCC(=O)N[C@H](CS(=O)(=O)O)c1ccccc1)[C@H]1CC[C@H]2[C@@H]3CC[C@@H]4CC(=O)CC[C@]4(C)[C@H]3CC[C@]12C [NC30018],< 20,≥ 2000,≥ 200,< 20
C[C@H](CCC(=O)N1CCC[C@@H]1CS(=O)(=O)O)[C@H]1CC[C@H]2[C@@H]3CC[C@@H]4C[C@H](O)CC[C@]4(C)[C@H]3C[C@H](O)[C@]12C [NC10036],< 20,≥ 2000,100 to 200,> 100
CC(C)C[C@@H](CS(=O)(=O)O)NC(=O)CC[C@@H](C)[C@H]1CC[C@H]2[C@@H]3CC[C@@H]4C[C@H](O)CC[C@]4(C)[C@H]3CC[C@]12C [NC10086],< 20,< 500,≥ 200,< 20
C[C@H](CCC(=O)Nc1ccc(S(=O)(=O)O)cc1)[C@H]1CC[C@H]2[C@@H]3CC[C@@H]4C[C@H](O)CC[C@]4(C)[C@H]3C[C@H](O)[C@]12C [NC10003],> 100,< 500,< 50,> 100
CC[C@H]1[C@@H](O)[C@@H]2[C@H](C[C@H](O)[C@]3(C)[C@@H]([C@H](C)CCC(=O)N[C@@H](C)CS(=O)(=O)O)CC[C@@H]23)[C@@]2(C)CC[C@@H](O)C[C@@H]12 [NC50028],< 20,1000 to 2000,≥ 200,50 to 100
